Columns and labels:
[1] = pterin suspensions tested by the NIH; cited from earlier work
[2] = system: C3H/HeN-MTV+ mammary gland adenocarcinoma; details: oral gavage 3/16 mL of 5 mM pterin in 1.25 mM CaCl2 daily (about 7 mg/kg/day) for 8 days; Figure One
Protocol: LaRusso, P., et al. Cancer Research 50: 4900-4905 (1990). T/C is the ratio between the median tumor volume (MTV) of the Test group of tumor producing mice and the MTV of the Control group of mice. […] The median tumor volume of each group is determined, including zeros (remissions), for each day of measurement. The T/C value in percentage is an indication of antitumor effectiveness (Figure Two). A T/C equal to or less than 42% is considered significant antitumor activity. A T/C value <10% is indicative of a high degree of antitumor activity and is the level used by the National Cancer Institute to justify systematic toxicology studies preliminary to Investigational New Drug (IND) filing (termed DN-2 level activity).
The A-line at 42% represents the level of activity established by the N.C.I. for “significant antitumor activity”. The B-line at about 10% depicts the level representing a “high degree of antitumor activity”.

[3] = system: MDA MB 231 breast cancer cells; assay: Human breast tumor xenograft in athymic nude mice, oral gavage; format: in vivo; details: oral gavage once daily for 14 days, 3/16 mL, Figure Three
Excerpt: This study evaluated the activity of the test agent, CaPterin, on human mammary tumor xenografts in mice. Athymic nude (nu/nu) female mice, age 3-4 weeks, were purchased from Harlan Spreague Dawley, Inc. (Indianapolis, Ind.). The animals were housed four per cage in sterile filter-topped cages in ventilated cage racks and Microisolator™ cages (LabProducts, DE). Upon arrival, the mice were quarantined for at least four working days before use. The animal facility is AAALAC-accredited. Temperature is maintained at 72+/−5° F. and relative humidity at 35-70%; a 12-hour light/dark cycle was used. The mice were fed sterile, autoclavable, certified Purina rodent chow ad libitum. […] The water supply is analyzed quarterly for metals and trace contaminants. […]
Tumor dimensions and body weights were measured 4 times weekly for approximately three weeks from the start of treatment. Tumors were measured in three planes using Vernier calipers, and tumor volume (V) was calculated as follows: V=pi(x x y x z)/6, where x, y, and z are the tumor measurements minus skin thickness. The mean tumor volume was calculated at each time point. For each group, the mean of the ratio V/Vo was plotted as a function of time after treatment, and tumor growth delay calculated. Treatment toxicity was assessed from reductions in body weight after treatment. […]

[4] = Treatment toxicity (body weight reduction) in athymic nude mice; format: in vivo; details: oral gavage once daily for 14 days; assessed from reductions in body weight
Protocol: MDA MB 231 breast cancer cells (5,000,000 cells in 100 uL of phosphate buffered saline) were injected subcutaneously into the right leg of female immunodeficient athymic nude mice. When the tumors reached a mean diameter of 3-5 mm, the mice were divided into two groups (8 mice per treatment group), and the treatment begun. The mice were treated by oral gavage once daily for 14 days with either 3/16 mL of the vehicle control (water) or with 3/16 mL of 5 mM CaCl2 .Pterin from Example 2.
Tumor dimensions and body weights were measured 4 times weekly for approximately three weeks from the start of treatment. Tumors were measured in three planes using Vernier calipers, and tumor volume (V) was calculated as follows: V=pi(x x y x z)/6, where x, y, and z are the tumor measurements minus skin thickness. The mean tumor volume was calculated at each time point. For each group, the mean of the ratio V/Vo was plotted as a function of time after treatment, and tumor growth delay calculated. Treatment toxicity was assessed from reductions in body weight after treatment. The mice were sacrificed if their tumor volumes reached greater than or equal to 1600 mm^3 or weight loss exceeded 25%.

Q: For `Nc1nc2nccnc2c(=O)[nH]1` [Pterin], which antineoplastic activity [1] is on record?
A: no significant antineoplastic activity

Q: With CaCl2(pterin)4 as the compound, how does the “median tumor volume (MTV) relative to controls” value [2] read?
A: strongly regresses tumor growth relative to controls

Q: For CaCl2(pterin)4 [CaPterin], which “mean growth response as relative tumor volume (V/Vo) relative to controls” value [3] is on record?
A: strongly regresses tumor growth relative to controls

Q: And the “toxicity throughout the course of treatment” value [4]?
A: no evidence of toxicity
